In patent US6407125B1, “Pharmacological agent and method of treatment” (Novactyl, Inc., priority 1995, dated 2002):

Assays:
recombinant MPS-1 = recombinant MPS-1 (Homo sapiens, UniProt P42677); assay: Gel shift assay of zinc dependent binding of recombinant MPS-1 to DNA; 65Zn removal from MPS-1; assay type: biochemical
From the text: MPS-1 is a ubiquitous tumor marker and cell growth stimulator and is described in detail in the inventor's U.S. Pat. No. Re.35,585 (U.S. Pat. No. 5,243,041). MPS-1 has one zinc finger domain of the type CCCC. […] This is detected by a change in the electrophoretic mobility of MPS-1 under non-denaturing conditions. These experiments indicate that picolinic acid and derivatives should remove zinc and denature various types of zinc finger or zinc ring proteins, whether known or heretofore undiscovered, including viral proteins such as nucleocapsid p7 proteins, as will be explained further. Furthermore, the inventor has determined that any chemical compound, whether known or heretofore undiscovered, that will remove the zinc (or other metal) and denature the proteins or that will form a ternary complex (protein-zinc-chelator) can be effective as a therapeutic agent or as an autologous immune response modulator, as will be discussed in greater detail below.

cells = conditions: cited from earlier work
[1] = Topical treatment of inflammation associated with acne; assay type: in vivo; conditions: 5% to 10% aqueous solution; more than 35 cases, adults and teenagers
From the text: Furthermore, it is believed that the response of cells to stress, such as exposure to UV radiation, chemicals, bacteria, parasites or fungi is associated with the induction of heat shock proteins.

metastatic breast cancer = assay: Topical treatment of metastatic breast cancer to skin and bone of the skull; assay type: in vivo, human; conditions: 10% in Aquaphor, changed twice daily, approximately 35 days
Description: A person with metastatic breast cancer to the skin and bone of the skull was treated with a topical preparation of 10% picolinic acid in Aquaphor. The preparation was applied to the cancerous lesions and to a bandage and changed twice daily. The multiple cancer lesions were approximately 1 to 1.5 cm in diameter.

metastatic colon cancer = assay: Oral treatment of metastatic colon cancer, case; assay type: in vivo, human
From the text: The inventor has determined that systemic administration of picolinic acid or derivatives is effective in controlling various cancers with reduced side effects by mechanisms heretofore unknown or unanticipated. […] The patient's condition improved. Based upon known mechanisms of action, the inventor anticipated that the patient may become anemic due to the concomitant chelation of iron. However, the inventor discovered a completely novel response. Over the course of several weeks, the patent's hematocrit increased. The inventor determined that the increase in hemoglobin along with the clinical improvement, is a result of synergistic mechanisms. First, the chelation of the iron suppressed tumor angiogenesis and induce killer T-cell formation. Furthermore, the chelated iron appears to be actively and usefully transported to bone marrow to support hematopoesis.
The subject is a person with metastatic colon cancer. The subject presented with an enlarged lymph node in the neck. The lymph node was putting pressure on nerves causing a drooping of the subject's right eyelid. […] Treatment was initiated with 500 mg of picolinic acid in capsule form, by mouth twice daily. […] An aspiration needle biopsy of the lymph node was attempted but had to be repeated due to the fact that the pathologist was withdrawing necrotic tissue from the lymph node. […] The protocol includes increasing the dosage up to 2000 mg per day, or more, if required.

LoVo cells = assay: Growth of LoVo cells (total cell protein, cell number, DNA synthesis); assay type: cell-based, human; conditions: 3 mM picolinic acid
Description: Cells were plated at 1.5×10^5 cells/60-mm dish; 48 hours later, the medium was removed, and new media with or without 3 mM picolinic acid was added. Total cell protein was determined at the indicated times; each point is the average of triplicate measurements from 2 cultures.
In initial experiments to examine the effects of fusaric acid on cell growth and viability, WI-38 and LoVo cells were incubated for 24 to 72 hours in medium with or without various doses of fusaric acid (0.1-1 mM). The growth of both WI-38 and LoVo cells was inhibited by 500 μM fusaric acid in a time and dose dependent manner, as shown below in Table 2.
After 30 hours of treatment with 500 μM fusaric acid, there was a prominent decrease in cell number. DNA synthesis was completely (100%) inhibited by 24 hours. When treated with 500 μM fusaric acid, the majority of the LoVo cells acquired a rounded morphology by 48 hours.
However, after 100 hours, an increase in cell number was noted after 25 additional hours.

## O=C(O)c1ccccn1 [picolinic acid, 2-Pyridine carboxylic acid]
Recombinant MPS-1; CCCC zinc finger, change in electrophoretic mobility, non-denaturing conditions
  removal of radioactive 65Zn from MPS-1: remove radioactive 65Zn from MPS-1
Recombinant MPS-1; gel shift assays
  zinc dependent binding of recombinant MPS-1 to DNA: inhibit the zinc dependent binding of recombinant MPS-1 to DNA
cells
  incorporation of iron into the cells: inhibits incorporation of iron into the cells
  removal of radioiron from the cells: effectively removes radioiron from the cells
[1]
  treatment of inflammation associated with acne: successfully treated
Metastatic breast cancer
  cancer lesion outcome: resolved with scar tissue forming
Metastatic colon cancer; 500 mg capsule by mouth twice daily, within 72 hours, palpation
  estimated reduction in mass of cancerous lymph node: over 50%
Metastatic colon cancer; 500 mg picolinic acid twice daily
  tolerability: tolerating treatment well
Metastatic colon cancer; oral picolinic acid, over several weeks
  hematocrit: increased
LoVo cells
  growth of LoVo cells: inhibited
10% in Aquaphor daily, approximately three weeks, two patients
  actinic lesion outcome: completely cured
In vivo
  effects on normal skin: without any effects on normal skin
